Data taken from US20040147494A1, “Use” (priority 2001, published 2004).

Experiments:
11 β-HSD type 2 = molecular target: T1, 11 β-HSD type 2 (Rattus norvegicus, UniProt P50233); test: biochemical; settings: read-out: % […]→E ± SD, inhibitor 10 μM; rat kidney cytosol 150 μL, 60 min, 37° C.; cortisol (F) to cortisone (E); vs control without inhibitor; means n=2; read-out: % INHIBITION F→E ± SD
T1 construct: Both the kidneys and livers were homogenised on ice in PBS- sucrose buffer; tissue Harlan Olac, Bicester, Oxon, UK (rats); host or cells: rat kidney homogenate supernatant (Wistar rat)
T1 sequence (P50233 1-400): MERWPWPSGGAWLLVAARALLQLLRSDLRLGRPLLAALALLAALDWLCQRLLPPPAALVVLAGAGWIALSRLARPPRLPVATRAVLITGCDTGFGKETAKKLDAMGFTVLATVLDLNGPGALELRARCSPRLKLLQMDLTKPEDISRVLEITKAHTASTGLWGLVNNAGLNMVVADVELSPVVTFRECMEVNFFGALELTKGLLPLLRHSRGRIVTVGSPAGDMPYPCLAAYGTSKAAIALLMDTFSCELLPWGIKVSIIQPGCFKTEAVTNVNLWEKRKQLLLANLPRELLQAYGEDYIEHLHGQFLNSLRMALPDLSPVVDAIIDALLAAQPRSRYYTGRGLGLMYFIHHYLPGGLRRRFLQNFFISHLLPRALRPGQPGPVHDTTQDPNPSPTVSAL
Protocol: Enzymes—Rat livers and rat kidneys were obtained from normal Wistar rats (Harlan Olac, Bicester, Oxon,UK). Both the kidneys and livers were homogenised on ice in PBS- sucrose buffer (1 g/10 ml) using an Ultra-Turrax. After the livers and kidneys were homogenised the homogenate was centrifuged for five minutes at 4000 rpm. The supernatant obtained was removed and stored in glass vials at −20° C. The amount of protein per μl of rat liver and kidney cytosol was determined using the Bradford method.
The same procedure was used for the 11 β-HSD type 2 assay, the conversion F to E, to determine the amount of rat kidney to be used and the incubation time.
In these assays the influence of different inhibitors on the 11 β-HSD activity both in reductive (type 1) and oxidative (type 2) directions were assessed. In the reductive direction E is the substrate and F the product and visa versa in the case of oxidation. The method described here is for the oxidative direction.
The substrate solution contained about 50,000 cpm/ml ^3H—F in PBS-sucrose and 0.5 pM F. 1 ml of the substrate solution was added to each tube, the inhibitors were also added, at a 10 μM concentration, to each tube except to the “control” and “blank” tubes. 150 μL was added to all tubes except to the blanks, this was done to correct for the amount of ^3H[…]. The tubes were incubated for 60 minutes in a mechanically shaken water bath at 37° C. […] After incubation 50 μL of recovery was added to correct for the losses made in the next steps, containing 5000 cpm/50 μL of ^14C-E and 50 μg/50 μL of unlabelled E (to visualise the spot on the TLC-plate). The aqueous mixture was then extracted with 4 ml of ether (2×30 sec cycle, vortex mix). After freezing the aqueous phase, the ether (upper) layer was decanted into smaller tubes and evaporated at 45° C. until completely dry. The residue was then re-dissolved in 6 drops of ether and transferred to a TLC-plate. The TLC-plate was developed in chloroform:methanol (9:1 v/v) solvent system, the TLC-plate ran for about 90 minutes until the solvent front had moved about 18 cm. The position of the product E was visualised under UV-light and cut out from the TLC-plate and put into scintillation vials. Radioactivity was eluted over 5 minutes with 0.5 ml methanol. 0.5 ml of PBS- sucrose and 10 ml of Ecoscint were then added and vortex mixed before counting in the scintillation counter. Before counting the samples, two total activity vials were prepared. These contained 0.5 ml of the substrate solution, 50 μL of the recovery, 0.5 ml of methanol and 10 ml of Ecoscint. These two total activity vials were needed to determine the amount of ^14C-E and ^3H—F added in the beginning to make the calculations.
To look at the percentage of inhibition four different concentrations, 1, 5, 10 and 20 μM, were used. The method for both the rat liver, type 1 the reductive, and rat kidney, type 2 the oxidative, stay the same throughout the entire experiment.
In this experiment the influence of different inhibitors on the conversion E to F and F to E was determined. The reason why inhibition in both directions was examined was to make a comparison between the inhibitors and which type of 11 β-HSD they inhibit more. Thirty-two compounds were screened for their ability to inhibit 11 β-HSD type 1 (E to F) and type 2 (F to E). […] The percent of inhibition was calculated as the percentage of decrease in radio labelled ^3H-E and ^3H—F of product formed, compared with the control activity (the tubes without an inhibitor in it). All the results calculated are means, n=2.

11 β-HSD type 1 = molecular target: T2, 11 β-HSD type 1 (Rattus norvegicus, UniProt P16232); test: biochemical; format: biochemical; settings: rat liver cytosol 25 μL, 90 min, 37° C., cortisone (E) to cortisol (F), vs control without inhibitor, means n=2; for inhibition at 10 µM: read-out: % […]→F ± SD, inhibitor 10 μM, read-out: % INHIBITION E→F ± SD
T2 construct: Both the kidneys and livers were homogenised on ice in PBS- sucrose buffer; tissue Harlan Olac, Bicester, Oxon, UK (rats); host or cells: rat liver homogenate supernatant (Wistar rat)
T2 sequence (P16232 whole entry): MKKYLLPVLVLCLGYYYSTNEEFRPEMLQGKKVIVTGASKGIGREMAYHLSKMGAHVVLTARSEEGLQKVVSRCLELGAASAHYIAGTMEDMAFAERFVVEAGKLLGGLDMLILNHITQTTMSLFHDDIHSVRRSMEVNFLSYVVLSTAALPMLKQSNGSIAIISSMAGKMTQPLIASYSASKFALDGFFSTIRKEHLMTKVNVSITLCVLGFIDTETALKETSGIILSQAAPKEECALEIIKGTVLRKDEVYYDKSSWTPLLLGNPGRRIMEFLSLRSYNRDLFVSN

## CO[C@H]1CC[C@@]2(C)C(CC[C@]3(C)C2C(=O)C=C2[C@@H]4C[C@@](C)(C(=O)O)CC[C@]4(C)CC[C@]23C)C1(C)C (stereo partly drawn) [STX195a, 3β-Methoxy-11-oxo-18β-glycerrhetinic acid]
11 β-HSD type 2
  inhibition at 10 µM: 90.3 ± 1.98%
11 β-HSD type 1
  inhibition at 10 µM: 53 ± 1.02%

## CCO[C@H]1CC[C@@]2(C)C(CC[C@]3(C)C2C(=O)C=C2[C@@H]4C[C@@](C)(C(=O)O)CC[C@]4(C)CC[C@]23C)C1(C)C (stereo partly drawn) [STX196a, 3β-Ethoxy-11-oxo-18β-glycerrhetinic acid]
11 β-HSD type 2
  inhibition at 10 µM: 93.9 ± 1.77%
11 β-HSD type 1
  inhibition at 10 µM: 55 ± 0.022%

## CC1(C)[C@@H](O)CC[C@]2(C)[C@H]3C(=O)C=C4[C@@H]5C[C@@](C)(C(=O)OCCc6ccccc6)CC[C@]5(C)CC[C@@]4(C)[C@]3(C)CC[C@@H]12 [STX197, 3β-hydroxy-11-oxo-18β-glycyrrhetinic acid phenylethyl ester]
11 β-HSD type 1; inhibitor 10 μM
  % INHIBITION E→F ± SD: 53.0 ± 0.935%

## CC1(C)[C@@H](O)CC[C@]2(C)[C@H]3C(=O)C=C4[C@@H]5C[C@@](C)(C(=O)O)CC[C@]5(C)CC[C@@]4(C)[C@]3(C)CC[C@@H]12 [STX352, 3β-Hydroxy-11-oxo-18β,20β-olean-12-en-29-oic acid, reference compound]
11 β-HSD type 1
  inhibition at 10 µM: 85.2 ± 3.69%

## CC1(C)[C@@H](O)CC[C@]2(C)[C@H]3C(=O)C=C4[C@H]5C[C@@](C)(C(=O)O)CC[C@]5(C)CC[C@@]4(C)[C@]3(C)CC[C@@H]12 [STX353, 3β-Hydroxy-11-oxo-18α,20β-olean-12-en-29-oic acid, reference compound]
11 β-HSD type 1
  inhibition at 10 µM: 89 ± 1.49%

## CC1(C)C(O)CC[C@@]2(C)C1CC[C@]1(C)C2CC=C2[C@@H]3C[C@@](C)(C(=O)OCc4ccccc4)CC[C@]3(C)CC[C@]21C (stereo partly shown) [STX 296]
11 β-HSD type 2
  inhibition at 10 µM: 33.8 ± 15.8%
11 β-HSD type 1
  inhibition at 10 µM: 37.7 ± 8.85%

## CCOC(=O)[C@@]1(C)CC[C@]2(C)CC[C@]3(C)C(=CC(=O)C4[C@@]5(C)CC[C@H](OCc6ccccc6)C(C)(C)C5CC[C@]43C)[C@@H]2C1 (stereo partly shown) [STX 297]
11 β-HSD type 2
  inhibition at 10 µM: 58.7 ± 10.4%
11 β-HSD type 1
  inhibition at 10 µM: 34.3 ± 8.26%

## CC(C)(C)OC(=O)[C@@]1(C)CC[C@]2(C)CC[C@]3(C)C(=CC(=O)C4[C@@]5(C)CC[C@H](O)C(C)(C)C5CC[C@]43C)[C@@H]2C1 (stereo partly shown) [STX 298]
11 β-HSD type 2
  inhibition at 10 µM: 22.6 ± 12.9%
11 β-HSD type 1
  inhibition at 10 µM: 50.6 ± 4.43%

## COC(=O)[C@@]1(C)CC[C@]2(C)CC[C@]3(C)C(=CCC4[C@@]5(C)CC[C@H](O)C(C)(C)C5CC[C@]43C)[C@@H]2C1 (stereo partly shown) [STX 299]
11 β-HSD type 2
  inhibition at 10 µM: 19.5 ± 1.66%
11 β-HSD type 1
  inhibition at 10 µM: 20.2 ± 1.89%

## CC1(C)C(=O)CC[C@@]2(C)C1CC[C@]1(C)C2C(=O)C=C2[C@@H]3C[C@@](C)(C(=O)O)CC[C@]3(C)CC[C@]21C (stereo partly drawn) [STX 347, 3-Oxo-18β-glycerrhetinic acid]
11 β-HSD type 1
  inhibition at 10 µM: 89.37 ± 0.1%

## CC1(C)C2CC[C@]3(C)C(C(=O)C=C4[C@@H]5C[C@@](C)(C(=O)OCc6ccccc6)CC[C@]5(C)CC[C@]43C)[C@@]2(C)CC[C@@H]1O (stereo partly shown) [STX 348]
11 β-HSD type 2
  inhibition at 10 µM: 94.77 ± 0.17%
11 β-HSD type 1
  inhibition at 10 µM: 63.4 ± 1.45%

## CC1(C)C2CC[C@]3(C)[C@H](C(=O)C=C4[C@@H]5C[C@@](C)(C(=O)NCc6ccccc6)CC[C@]5(C)CC[C@]43C)[C@@]2(C)CC[C@@H]1O (stereo partly drawn) [STX 366, 18β-Glycyrrhetinic Acid Benzylamide]
11 β-HSD type 1
  inhibition at 10 µM: 85.2 ± 1.09%
